The values that follow come from the supplement of paper PMC10307832.

Assay in all cases: relative viability (nuclei count vs DMSO), 5 days (fraction); higher = more cells survive
Compound in assay [1]: O=C(Nc1cc(C(F)(F)F)cc(C(F)(F)F)c1)c1cc(Cl)ccc1O [IMD-0354] + COc1cc2c(Oc3ccc(NC(=O)C4(C(=O)Nc5ccc(F)cc5)CC4)cc3F)ccnc2cc1OCCCN1CCOCC1 [Foretinib] (partner 0.25 µM)
The method in brief:
(§1)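 For relative viability, nuclei counts in treated wells were divided by those in vehicle wells. Lung cancer cell lines had been pin-tool dosed in 1536-well plates the day after seeding and cultured for 5 days, then fixed and stained in one step (final 0.05% Triton X-100, 1% formaldehyde, 1 ug/ml Hoechst) and imaged at 4×. Doses were one drug alone or a fixed anchor-drug dose plus five library-drug doses (not always all listed) in √10 steps, and values are duplicate-plate medians.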

Compound in assay [2]: O=C(Nc1cc(C(F)(F)F)cc(C(F)(F)F)c1)c1cc(Cl)ccc1O [IMD-0354] + C[C@]1(O)C[C@@H](c2nc(-c3ccc4ccc(-c5ccccc5)nc4c3)c3c(N)nccn32)C1 [Linsitinib] (partner 1 µM)
In short, it runs like this: as §1

Compound in assay [3]: Cc1cnc(CNC(=O)c2c(=O)c3ccc(N4CCCN(C)CC4)nc3n3c2sc2ccccc23)cn1 [CX-5461] + Cc1cc(Nc2cc(N3CCN(C)CC3)nc(Sc3ccc(NC(=O)C4CC4)cc3)n2)n[nH]1 [Tozasertib] (partner 0.1 µM)
The method in brief: as §1

Compound in assay [4]: O=C(Nc1cc(C(F)(F)F)cc(C(F)(F)F)c1)c1cc(Cl)ccc1O [IMD-0354] + CC(C)C[C@H](NC(=O)[C@H](Cc1ccccc1)NC(=O)c1cnccn1)B(O)O [Bortezomib] (partner 0.002 µM)
In short, it runs like this: as §1

With NCI-H3122, the relative viability worked out at 0.959 in assay [1] (first compound 0.04 µM); 0.964 in assay [1] (first compound 0.1265 µM); 0.722 in assay [1] (first compound 0.4 µM); 0.779 in assay [1] (first compound 1.265 µM); 0.129 in assay [1] (first compound 4 µM); 1.06 in assay [2] (first compound 0.04 µM). The relative viability amounted to 1.12 in assay [2] (first compound 0.1265 µM); 0.742 in assay [2] (first compound 0.4 µM); 0.573 in assay [2] (first compound 1.265 µM); 0.15 in assay [2] (first compound 4 µM); 0.389 in assay [3] (first compound 0.01 µM); 0.537 in assay [3] (first compound 0.03162 µM). The relative viability in assay [3] (first compound 0.1 µM) was found to be 0.352; in assay [3] (first compound 0.3162 µM), 0.314; in assay [3] (first compound 1 µM) it was 0.262; in assay [4] (first compound 0.04 µM), 0.975; in assay [4] (first compound 0.1265 µM) it was 1.06; in assay [4] (first compound 0.4 µM), 0.927. The relative viability was 0.231 in assay [4] (first compound 1.265 µM) and 0.172 in assay [4] (first compound 4 µM).
On to PC-3 [JPC-3], for which the relative viability in assay [1] (first compound 0.04 µM) is 1.07; in assay [1] (first compound 0.1265 µM) it was 1; in assay [1] (first compound 0.4 µM) it was 0.61; in assay [1] (first compound 1.265 µM), 0.376; in assay [1] (first compound 4 µM), 0.272; in assay [2] (first compound 0.04 µM) it was 0.975. Also, the relative viability worked out at 0.945 in assay [2] (first compound 0.1265 µM); 0.826 in assay [2] (first compound 0.4 µM); 0.734 in assay [2] (first compound 1.265 µM); 0.251 in assay [2] (first compound 4 µM); 0.899 in assay [3] (first compound 0.01 µM); 0.947 in assay [3] (first compound 0.03162 µM). Also, the relative viability in assay [3] (first compound 0.1 µM) was 0.851; in assay [3] (first compound 0.3162 µM), 0.792; in assay [3] (first compound 1 µM), 0.847; in assay [4] (first compound 0.04 µM), 0.928; in assay [4] (first compound 0.1265 µM), 0.912; in assay [4] (first compound 0.4 µM) it was 0.534. The relative viability in assay [4] (first compound 1.265 µM) amounted to 0.636; in assay [4] (first compound 4 µM), 0.312.
On to PC-14, for which the relative viability in assay [1] (first compound 0.04 µM) was determined as 1.05; in assay [1] (first compound 0.1265 µM), 0.799; in assay [1] (first compound 0.4 µM), 0.698; in assay [1] (first compound 1.265 µM), 0.546; in assay [1] (first compound 4 µM) it was 0.179; in assay [2] (first compound 0.04 µM), 1.01. Besides, the relative viability was 0.841 in assay [2] (first compound 0.1265 µM); 0.604 in assay [2] (first compound 0.4 µM); 0.403 in assay [2] (first compound 1.265 µM); 0.175 in assay [2] (first compound 4 µM); 0.71 in assay [3] (first compound 0.01 µM); 0.642 in assay [3] (first compound 0.03162 µM). Besides, the relative viability was determined as 0.618 in assay [3] (first compound 0.1 µM); 0.293 in assay [3] (first compound 0.3162 µM); 0.492 in assay [3] (first compound 1 µM); 1.12 in assay [4] (first compound 0.04 µM); 0.802 in assay [4] (first compound 0.1265 µM); 0.354 in assay [4] (first compound 0.4 µM). Also, the relative viability was determined as 0.443 in assay [4] (first compound 1.265 µM) and 0.114 in assay [4] (first compound 4 µM).
Turning to RERF-LC-KJ, the relative viability in assay [1] (first compound 0.04 µM) came to 0.934; in assay [1] (first compound 0.1265 µM), 0.93; in assay [1] (first compound 0.4 µM), 0.568; in assay [1] (first compound 1.265 µM) it was 0.471; in assay [1] (first compound 4 µM), 0.214; in assay [2] (first compound 0.04 µM), 0.948. Moreover, the relative viability stood at 0.944 in assay [2] (first compound 0.1265 µM); 0.66 in assay [2] (first compound 0.4 µM); 0.298 in assay [2] (first compound 1.265 µM); 0.208 in assay [2] (first compound 4 µM); 0.449 in assay [3] (first compound 0.01 µM); 0.516 in assay [3] (first compound 0.03162 µM). The relative viability in assay [3] (first compound 0.1 µM) amounted to 0.287; in assay [3] (first compound 0.3162 µM), 0.509; in assay [3] (first compound 1 µM) it was 0.245; in assay [4] (first compound 0.04 µM), 1.15; in assay [4] (first compound 0.1265 µM), 1.17; in assay [4] (first compound 0.4 µM), 0.875. The figures for the relative viability in assay [4] (first compound 1.265 µM) and in assay [4] (first compound 4 µM) were 0.489 and 0.254, respectively.
For SK-LU-1, the relative viability in assay [1] (first compound 0.04 µM) was determined as 0.808; in assay [1] (first compound 0.1265 µM), 0.752; in assay [1] (first compound 0.4 µM) it was 0.457; in assay [1] (first compound 1.265 µM), 0.169; in assay [1] (first compound 4 µM), 0.221; in assay [2] (first compound 0.04 µM), 1.41. In addition, the relative viability in assay [2] (first compound 0.1265 µM) was 0.863; in assay [2] (first compound 0.4 µM) it was 0.621; in assay [2] (first compound 1.265 µM) it was 0.24; in assay [2] (first compound 4 µM), 0.264; in assay [3] (first compound 0.01 µM) it was 0.33; in assay [3] (first compound 0.03162 µM) it was 0.339. The relative viability amounted to 0.247 in assay [3] (first compound 0.1 µM); 0.189 in assay [3] (first compound 1 µM); 1.17 in assay [4] (first compound 0.04 µM); 1.1 in assay [4] (first compound 0.1265 µM); 0.645 in assay [4] (first compound 0.4 µM); 0.418 in assay [4] (first compound 1.265 µM). The relative viability in assay [4] (first compound 4 µM) amounted to 0.304.
Turning to SW 1573, the relative viability in assay [1] (first compound 0.04 µM) came to 0.891; in assay [1] (first compound 0.1265 µM) it was 0.928; in assay [1] (first compound 0.4 µM) it was 0.579; in assay [1] (first compound 1.265 µM) it was 0.61; in assay [1] (first compound 4 µM), 0.123; in assay [2] (first compound 0.04 µM), 0.764. The relative viability came to 0.697 in assay [2] (first compound 0.1265 µM); 0.589 in assay [2] (first compound 0.4 µM); 0.493 in assay [2] (first compound 1.265 µM); 0.102 in assay [2] (first compound 4 µM); 0.183 in assay [3] (first compound 0.01 µM); 0.161 in assay [3] (first compound 0.03162 µM). The relative viability in assay [3] (first compound 0.1 µM) was 0.147; in assay [3] (first compound 0.3162 µM), 0.172; in assay [3] (first compound 1 µM), 0.166; in assay [4] (first compound 0.04 µM), 1.38; in assay [4] (first compound 0.1265 µM), 0.96; in assay [4] (first compound 0.4 µM) it was 0.479. For the same cell line, the relative viability turned out to be 0.563 in assay [4] (first compound 1.265 µM) and 0.132 in assay [4] (first compound 4 µM).
With UMC-11, the relative viability in assay [1] (first compound 0.04 µM) stood at 1.07; in assay [1] (first compound 0.1265 µM) it was 1.03; in assay [1] (first compound 0.4 µM), 0.431; in assay [1] (first compound 1.265 µM), 0.235; in assay [1] (first compound 4 µM) it was 0.235; in assay [2] (first compound 0.04 µM), 1.04. For the same cell line, the relative viability came to 1.04 in assay [2] (first compound 0.1265 µM); 0.559 in assay [2] (first compound 0.4 µM); 0.254 in assay [2] (first compound 1.265 µM); 0.285 in assay [2] (first compound 4 µM); 0.189 in assay [3] (first compound 0.01 µM); 0.201 in assay [3] (first compound 0.03162 µM). The relative viability in assay [3] (first compound 0.1 µM) came out at 0.204; in assay [3] (first compound 0.3162 µM), 0.198; in assay [3] (first compound 1 µM), 0.243; in assay [4] (first compound 0.04 µM), 1.13; in assay [4] (first compound 0.1265 µM), 0.796; in assay [4] (first compound 0.4 µM) it was 0.465. The relative viability in assay [4] (first compound 1.265 µM) was 0.237; in assay [4] (first compound 4 µM), 0.212.
